Source: patent publication US20220170930A1, “METHOD FOR SCREENING COMPOUND FOR TREATING OR PREVENTING POLYQ-RELATED NEURODEGENERATIVE DISEASES” (FUDAN UNIVERSITY, priority 2019, published 2022)

Legend:
[1] = biological target: T1, binding between HTTexon1-Q72-MBP and LC3B (Homo sapiens, UniProt P42858+Q9GZQ8, INS38QQQQQQQQQQQQQQQQQQQQQQQQQQQQQQQQQQQQQQQQQQQQQQQQQQQ); assay: In vitro pull-down HTTexon1-Q72-MBP and LC3B; type: biochemical; conditions: 1 μM compound 1 or 100 nM compound 4
T1 construct: His8 (N, cleaved yes); GST (from pGEX-6P1) (N, cleaved yes); made in house; LC3B: E. coli BL21(DE3)pLsyS
T1 sequence (P42858 other isoform, or with tags, fused parts or gaps with the stated changes): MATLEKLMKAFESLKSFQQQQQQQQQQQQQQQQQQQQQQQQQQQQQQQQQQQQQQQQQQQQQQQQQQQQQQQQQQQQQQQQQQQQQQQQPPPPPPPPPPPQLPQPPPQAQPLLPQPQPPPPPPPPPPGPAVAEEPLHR
Experimental: Incubation was conducted. Then the unbound proteins were removed.
(3) The resin-bound proteins were eluted and analyzed by SDS-PAGE and Western-blots with anti-LC3 antibody (FIG. 22a).

[2] = biological target: T2, HTTexon1-Q25-MBP (Homo sapiens, UniProt P42858, DUP35-38); assay: OI-RD affinity with HTTexon1-Q25; type: binding
T2 construct: made in house; host or cells: mammalian expression vector pTT5SH8Q2
T2 sequence (P42858 with tags, fused parts or gaps DUP35-38): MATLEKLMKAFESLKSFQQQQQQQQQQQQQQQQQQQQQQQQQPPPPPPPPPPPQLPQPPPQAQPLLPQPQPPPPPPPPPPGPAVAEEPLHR
Experimental: OI-RD images before and after incubation with the target protein was obtained following the method in (1).
(§1) The difference images of the above steps (1), (2), (3) (the image after incubation minus the image before incubation) was analyzed respectively.
(§2) Each compound was printed in triplicates on the microarray. 01-RD was used to measure the affinity reaction parameters of compounds with HTTexon1-Q72 and HTTexon1-Q25.

[3] = biological target: T3, HTTexon1-Q72-MBP (Homo sapiens, UniProt P42858, INS38QQQQQQQQQQQQQQQQQQQQQQQQQQQQQQQQQQQQQQQQQQQQQQQQQQQ); assay: OI-RD affinity screening and affinity reaction parameters with HTTexon1-Q72; type: binding
T3 construct: made in house; host or cells: mammalian expression vector pTT5SH8Q2
T3 sequence (P42858 with tags, fused parts or gaps, stated change not applied): as the sequence (P42858 other isoform, or with tags, fused parts or gaps with the stated changes) above
Experimental: Each compound was printed in duplicate on the microarray. The compound not fixed on the surface of the chip was washed away. The chip was sealed and cleaned. 01-RD microscope was applied to scan the images. […] The chips are cleaned and scanned.
as §1, §2

[4] = system: SQSTM1/p62; assay: SQSTM1/p62 level in mouse cortices after ip injection; type: in vivo; conditions: HD mice
Experimental: Using a method similar to 6.2, Hdh^Q140/Q7 mice were administered with injections. A method similar to 7.1 was used to detect the effects of ip-injection of compounds on other known autophagy selective substrate proteins (SQSTM1/p62) in the cortical tissue of Hdh^Q140/Q7 mice.

For `O=C1Nc2ccc(I)cc2/C1=C/c1cc(Br)c(O)c(Br)c1` [compound 1, GW5074], the “binding between HTTexon1-Q72-MBP and LC3B” value [1] was “could enhance the binding”, the “binding to HTTexon1-Q25” value [2] was “do not bind” and the “binding to HTTexon1-Q72” value ([3]; OI-RD difference images) was “can bind”. The Koff ([3]; OI-RD, HTTexon1-Q72) was 0.000238 s⁻¹, the Kon ([3]; OI-RD, HTTexon1-Q72) was 9.07e-05 min/nM and the Kd ([3]; OI-RD, HTTexon1-Q72, read-out: Kd) was 158 nM. The “level of SQSTM1/p62 in the cortices” value [4] was “did not change”.
